# Source: US20150118214A1, “Pharmaceutical composition containing human cyclooxygenase and doxorubicin or doxorubicin analogue, preparation method therefor and use thereof in preparing drugs” (priority 2012, published 2015)
# What was measured:
# Type in all cases: in vivo, human
# [1] = system: nephritis patients; assay: treatment of nephritis patients, rates by traditional standard; settings: six or more cycles, course of seven days
# Excerpt: Containing native cyclooxygenase (COX-2) doxorubicin pharmaceutical compositions of natural (atm) doxorubicin or a natural substance in the class of drugs for treating nephritis application preparation, nephritis patients diagnosed according to the usual Standard diagnosis; “effective”, “markedly”, “cure” and other standards are in accordance with the traditional standard. Dose of the drug present invention are: adult three times daily 1.8 g. Course of seven days. When six or more cycles, the treatment effect of contrast in the following table: […]
# [2] = system: cancer (lymphoma) patients; assay: treatment of tumors, cancer (lymphoma) patients
# Excerpt: Containing native human cyclooxygenase (COX-2), doxorubicin natural (atm) or natural substance class doxorubicin in the preparation of a pharmaceutical composition of a medicament for the treatment of tumors, cancer (lymphoma) patients diagnosed is the usual criteria for diagnosis; “effective”, “cured”, “cure” and the like in accordance with conventional criteria standards. Dose of the drug present invention are: adult three times a day, every 1.8 go for 7 days. When eight or more cycles, the treatment effect of contrast in the following table: […]
# [3] = system: general inflammation in patients; assay: general anti-inflammatory analgesic use, general inflammation patients; settings: two or more cycles
# Excerpt: Containing native human cyclooxygenase (COX-2), doxorubicin natural (atm) or a pharmaceutical composition of doxorubicin substances of natural origin as a general anti-inflammatory analgesic drugs applied, general inflammation in patients diagnosed according to the usual criteria for diagnosis; “effective”, “cured”, “cure” and the like in accordance with conventional criteria standards. Dose of the drug present invention are: adult three times daily 1.8 g. Course of seven days When two or more cycles, the treatment effect of contrast in the following table: […]
structure (smiles),measurement,setting,value
CC(C)(C)NCC(O)COc1ccccc1C#N (stereo not drawn) [Bunitrolol],Markedly,[1],59%
same,Effective,[1]; invention drug adult three times daily 1.8 g,93.2%
CC(=O)O[C@H]1C(=O)[C@@]2(C)[C@H]([C@H](OC(=O)c3ccccc3)[C@]3(O)C[C@H](OC(=O)[C@H](O)[C@@H](NC(=O)c4ccccc4)c4ccccc4)C(C)=C1C3(C)C)[C@]1(OC(C)=O)CO[C@@H]1C[C@@H]2O [Paclitaxel],Cure,[2]; eight or more cycles,16.3%
same,Invalid,[2]; eight or more cycles,2.3%
same,Markedly,[2]; eight or more cycles,32.6%
same,Effective,"[2]; eight or more cycles of 7 days, invention drug adult three times a day 1.8 g",48.8%
[H]/N=C(/N)N[C@H]1[C@H](O)[C@@H](O)[C@H](O[C@@H]2O[C@@H](C)[C@](O)(C=O)[C@H]2O[C@@H]2O[C@@H](CO)[C@H](O)[C@@H](O)[C@@H]2NC)[C@@H](N/C(N)=N\[H])[C@@H]1O [Streptomycin],Invalid,[3],17.14%
same,Markedly,[3],78.57%
same,Effective,"[3]; course of seven days, invention drug adult three times daily 1.8 g",14.29%
